Reference: US10221163B2 (priority 2015, dated 2019)
Like-named read-outs stand apart in the source and are kept apart here.

Experiments:
[1] = biological target: VIM-1 (Pseudomonas aeruginosa (strain ATCC 15692 / DSM 22644 / CIP 104116 / JCM 14847 / LMG 12228 / 1C / PRS 101 / PAO1), UniProt A0A0F7KYQ8); experiment: biochemical; settings: CCF2-FA substrate, 30 pM enzyme, 2 hours at 25° C.
Method in brief: (§1)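 Two-hour, 25° C incubation of enzyme with inhibitor and CCF2-FA (7-hydroxycoumarin–cephalosporin–fluorescein). Fluorescence read-out; IC50 via 4-parameter fit.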

[2] = system: Pseudomonas aeruginosa efflux− (MB9799), IMP-1; format: cell-based; settings: concentration restoring susceptibility to imipenem at 2 μg/mL in the presence of a class A, C, D serine β-lactamase inhibitor closely related to relebactam
Method in brief: (§2)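 P. aeruginosa PAO1-derived IMP-1 strains, efflux+ MB9798 and efflux− MB9799, tested by standard microbroth MIC with imipenem and/or ceftazidime fixed, usually at CLSI breakpoint, plus fixed class A/C β-lactamase inhibitor against AmpC. Inhibitor titrated; concentration restoring susceptibility recorded; MB9798/MB9799 fold difference indicates efflux.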

[3] = system: Pseudomonas aeruginosa MB9798 vs MB9799; settings: ratio MITC95 PA_9798/MITC95 PA_9799
Method in brief: as §2

[4] = system: Pseudomonas aeruginosa efflux+ (MB9798), IMP-1; format: cell-based; settings: concentration restoring susceptibility to imipenem at 2 μg/mL in the presence of a class A, C, D serine β-lactamase inhibitor closely related to relebactam
Method in brief: as §2

[5] = biological target: NDM-1 (Klebsiella pneumoniae, UniProt C7C422); experiment: biochemical; format: biochemical; settings: fluorescence assay, CCF2-FA substrate, 1 pM enzyme, 2 hours at 25° C.; read-out: NDM-1 IC50
Method in brief: as §1

[6] = biological target: IMP-1 (Serratia marcescens, UniProt P52699); experiment: biochemical; format: biochemical; settings: fluorescence assay, CCF2-FA substrate, 2 pM enzyme, 2 hours at 25° C.; read-out: IMP-1 IC50
Method in brief: as §1

[7] = system: Escherichia coli expressing NDM-1 (CLB30005, CLB30016); format: cell-based; settings: with imipenem 1 μg/ml; 95% inhibition of bacterial growth
Method in brief: (§3)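 Colonies grown overnight on blood agar at 35° C were suspended in saline, diluted 1:100 into 1.1×CAMHB and dispensed. Imipenem was added to 1 μg/ml, then test compound. After 22 hours to 24 hours at 35° C, absorbance was recorded.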

[8] = system: Klebsiella pneumoniae expressing VIM-1 (IHMA599644); format: cell-based; settings: with imipenem 1 μg/ml; 95% inhibition of bacterial growth
Method in brief: as §3

[9] = system: Serratia marcescens expressing IMP-1 (CL5741); format: cell-based; settings: with imipenem 1 μg/ml; 95% inhibition of bacterial growth
Method in brief: as §3

[10] = fluorescence assay, read-out: VIM-1 IC50

IMP-1, sequence (P52699 whole entry, looked up, species assumed): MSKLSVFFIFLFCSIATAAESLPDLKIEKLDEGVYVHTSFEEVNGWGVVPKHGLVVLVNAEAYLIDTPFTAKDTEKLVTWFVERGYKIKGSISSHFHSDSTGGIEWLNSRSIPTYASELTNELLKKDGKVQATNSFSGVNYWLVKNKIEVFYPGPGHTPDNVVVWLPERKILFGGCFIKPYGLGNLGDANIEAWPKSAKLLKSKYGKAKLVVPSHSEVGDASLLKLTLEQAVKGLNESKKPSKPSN
NDM-1, sequence (C7C422 whole entry, looked up, species assumed): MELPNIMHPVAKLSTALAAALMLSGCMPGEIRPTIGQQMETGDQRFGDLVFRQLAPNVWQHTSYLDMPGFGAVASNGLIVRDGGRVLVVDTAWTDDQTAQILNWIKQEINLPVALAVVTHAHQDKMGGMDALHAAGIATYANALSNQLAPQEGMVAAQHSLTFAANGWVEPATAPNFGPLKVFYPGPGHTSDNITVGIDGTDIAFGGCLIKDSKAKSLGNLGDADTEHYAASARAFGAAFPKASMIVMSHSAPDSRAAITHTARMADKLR

| SMILES | IC50 [1, 10] [nM] | P. aeruginosa expressing IMP-1, efflux − (MB9799) MITC95 [2] [µM] | Efflux ratio [3] | P. aeruginosa expressing IMP-1, efflux + (MB9798) MITC95 [4] [µM] | IC50 [5] [nM] | IC50 [6] [nM] | Escherichia coli expressing NDM-1 (CLB30016) MITC95 [7] [µM] | Klebsiella pneumoniae expressing VIM-1 (IHMA599644) MITC95 [8] [µM] | Serratia marcescens expressing IMP-1 (CL5741) MITC95 [9] [µM] | IC50 ([1]; VIM-1 IC50, fluorescence assay) [nM] |
| --- | --- | --- | --- | --- | --- | --- | --- | --- | --- | --- |
| NC[C@H](CO)NS(=O)(=O)c1ccc(-c2cccnc2N)c(-c2nn[nH]n2)c1S(N)(=O)=O [Example 215, (R)-N1-(1-amino-3-hydroxypropan-2-yl)-4-(2-aminopyridin-3-yl)-3-(2H-tetrazol-5-yl)benzene-1,2-disulfonamide] | 0.222 | 1.563 | 1.00 | 1.563 | 0.175 | 2.12 | 0.1953 | 3.125 | 0.3906 |  |
| Nc1ncccc1-c1ccc(S(=O)(=O)N[C@H]2C[C@@H]2N)c(S(N)(=O)=O)c1-c1nn[nH]n1 [Example 216, N1-((1S)-2-amino-cyclopropyl)-4-(2-aminopyridin-3-yl)-3-(2H-tetrazol-5-yl)benzene-1,2-disulfonamide] |  | 1.563 | 4.00 | 6.25 | 0.237 | 1.83 | 0.1953 | 3.125 | 0.7813 | 0.269 |
| Nc1ccc(-c2ccc(S(=O)(=O)NCCc3ncc[nH]3)c(S(N)(=O)=O)c2-c2nn[nH]n2)cn1 [Example 218, N^1-(2-(1H-imidazol-2-yl)ethyl)-4-(6-aminopyridin-3-yl)-3-(2H-tetrazol-5-yl)benzene-1,2-disulfonamide] |  | 1.563 | 15.99 | 25 | 0.786 | 0.694 | 0.1953 | 3.125 | 0.7813 | 0.549 |
| Nc1cncc(-c2ccc(S(=O)(=O)N[C@@H]3CCNC3)c(S(N)(=O)=O)c2-c2nn[nH]n2)c1 [Example 219, (R)-4-(5-aminopyridin-3-yl)-N1-(pyrrolidin-3-yl)-3-(2H-tetrazol-5-yl)benzene-1,2-disulfonamide] | 0.209 | 1.563 | 1.00 | 1.563 | 0.366 | 1.93 | 1.563 | 1.563 | 1.563 |  |
| NS(=O)(=O)c1c(S(=O)(=O)N[C@@H]2CCNC2)ccc(-c2cccnc2N2CCNCC2)c1-c1nn[nH]n1 [Example 220, (R)-4-(2-(piperazin-1-yl)pyridin-3-yl)-N1-(pyrrolidin-3-yl)-3-(2H-tetrazol-5-yl)benzene-1,2-disulfonamide] | 0.442 | 1.563 | 4.00 | 6.25 | 1.57 | 35.8 | 1.563 | 1.563 | 3.125 |  |
| C[C@H](CN)NS(=O)(=O)c1ccc(-c2cncc(N)c2)c(-c2nn[nH]n2)c1S(N)(=O)=O [Example 221, (R)—N1-(1-aminopropan-2-yl)-4-(5-aminopyridin-3-yl)-3-(2H-tetrazol-5-yl)benzene-1,2-disulfonamide] | 0.152 | 1.563 | 1.00 | 1.563 | 0.281 | 0.688 | 1.563 | 6.25 | 1.563 |  |
| NC[C@H](O)CNS(=O)(=O)c1ccc(-c2ccncc2N)c(-c2nn[nH]n2)c1S(N)(=O)=O [Example 222, (S)—N1-(3-amino-2-hydroxypropyl)-4-(3-aminopyridin-4-yl)-3-(2H-tetrazol-5-yl)benzene-1,2-disulfonamide] | 0.445 | 1.563 | 1.00 | 1.563 | 0.311 | 1.19 | 0.3906 | 3.125 | 1.563 |  |
| NC[C@H](N)CNS(=O)(=O)c1ccc(-c2cnccc2N)c(-c2nn[nH]n2)c1S(N)(=O)=O [Example 223, (S)-4-(4-aminopyridin-3-yl)-N1-(2,3-diaminopropyl)-3-(2H-tetrazol-5-yl)benzene-1,2-disulfonamide] |  | 0.7813 | 2.00 | 1.563 | 1.75 | 4.51 | 0.09766 | 0.3906 | 0.3906 | 1.41 |
| NS(=O)(=O)c1c(S(=O)(=O)N[C@@H]2CCNC2)ccc(-c2cccc(-c3nc[nH]n3)c2)c1-c1nn[nH]n1 [Example 225, (R)-N4-(pyrrolidin-3-yl)-2-(2H-tetrazol-5-yl)-3′-(1H-1,2,4-triazol-3-yl)-[1,1′-biphenyl]-3,4-disulfonamide] | 0.0561 | 1.563 | 1.00 | 1.563 | 0.0256 | 0.11 | 3.125 | 3.125 | 1.563 |  |
| N[C@@H](CO)CNS(=O)(=O)c1ccc(-c2cccc(C3N=CN=N3)c2)c(-c2nn[nH]n2)c1S(N)(=O)=O (stereo partly drawn) [Example 226, N4-((R)-2-amino-3-hydroxypropyl)-2-(2H-tetrazol-5-yl)-3′-(3H-1,2,4-triazol-3-yl)-[1,1′-biphenyl]-3,4-disulfonamide] | 0.948 | 3.125 | 2.00 | 6.25 | 0.747 | 3.24 | 6.25 | 12.5 | 3.125 |  |
